Assay results from patent publication US12006503B2, “Fusion proteins and methods thereof” (The Trustees of Columbia University in the City of New York, priority 2012, dated 2024).

Key:
Rat1 = assay: Soft agar colony assay, Rat1 cells; format: cell-based, rat; settings: Rat1 cells transduced with the construct
Text: FGFR1-TACC1 and FGFR3-TACC3 induce anchorage-independent growth in Rat1A fibroblasts. The number of soft agar colonies was scored from triplicate samples 14 days after plating. Representative microphotographs are shown.

[1] = tested on: Ink4A;Arf-/- astrocytes in immunodeficient mice; assay: Subcutaneous tumor xenograft formation by lentivirus-transduced Ink4A;Arf-/- astrocytes; format: in vivo, mouse
Text: FIG. 3B are photomicrographs showing of immunofluoresence staining of tumors from mice injected with Ink4A; Arf−/− astrocytes expressing FGFR3-TACC3 showing positivity for glioma-specific (Nestin, Oig2 and GFAP) and proliferation markers (Ki67 and pHH3). Sub-cutaneous tumors were generated by Ink4A; Arf−/− astrocytes expressing FGFR-TACC fusions.
Subcutaneous xenografts and drug treatment. […] For experiments with FGFR inhibitors, mice carrying ˜200-300 mm 3 subcutaneous tumors derived from Ink4A; Arf−/− astrocytes were randomized to receive 50 mg/kg PD173074 in 0.05 M lactate buffer (pH 5) or an equal volume of lactate buffer by oral gavage. Treatment was administered for three cycles consisting of four consecutive days followed by two days of rest. […] Data are expressed as mean±SE.

[2] = tested on: Rat1A cells and Ink4A;Arf-/- astrocytes; assay: Quantitative analysis of chromosome segregation defects in mitoses; format: cell-based
Text: Quantitative analysis of metaphase spreads for chromosome segregation defects in Ink4A; ARF−/− astrocytes expressing vector control or FGFR3-TACC3 (upper panel). Microscope imaging analysis of chromosome segregation defects in Ink4A; Arf−/− astrocytes expressing FGFR3-TACC3 or vector control. Representative images of cells with chromosome missegregation. Arrows point to chromosome misalignments, lagging chromosomes and chromosome bridges.
Confocal microscopy imaging. For immunofluorescence of fixed cells, images were recorded with a Z-optical spacing of 0.25 μm using a Nikon AIR MP and a 60×1.3 oil objective and analyzed using ImageJ software (National Institute of Health). For live-cell analyses, Rat1A cells infected with pLNCX-H2B retrovirus and transduced with lentiviral vector or FGFR3-TACC3 fusion were seeded in glass bottom dishes in phenol red free DMEM and followed by time-lapse microscopy using the Nikon AIR MP biostation at 37° C. and 5% CO2/95% air. Images with a Z-optical spacing of 1 μm were recorded every 4 min for 8 h. Images of unchallenged mitosis from early prophase until cytokinesis were processed using ImageJ software (National Institute of Health). The time-point of nuclear envelope breakdown (NEB) was defined as the first frame showing loss of smooth appearance of chromatin and anaphase was the first frame when chromosome movement towards the poles became apparent. […]

FGFR1-TACC1: fusion protein in which the TK domain of FGFR1 is fused upstream of the TACC domain of TACC1 (SEQ ID NO: 150)
soft agar colonies (Rat1): 225.3 ± 10.0 | mice with tumors after subcutaneous injection of astrocytes expressing the fusion protein ([1]; Ink4A;Arf-/- astrocytes, immunodeficient mice): 100% | Subcutaneous tumor xenografts (tumors formed/injections) ([1]; Ink4Arf-/- astrocytes expressing the construct): 8/8 | increase of chromosomal segregation errors versus control cells [2]: three to five fold increase
